Reference: patent US8377900B2 (National Research Council of Canada, priority 2003, dated 2013)

Legend:
[1] = test system: S92G-mutated chimeric λR-GyrB transactivator; type: cell-based, Human
From the text: FIG. 5A. […] Results represent two independent experiments performed in triplicate.
Results shown are the means for triplicate determinations and representative of 3 experiments.

293A cells = type: cell-based, Human; conditions: 25 μM, cell growth rate and CMV-GFP expression
Method: At a concentration of 5 μM novobiocin, however, over 98% of the coumermycin-induced luciferase expression was suppressed (FIG. 5A).

[2] = cited from earlier work
[3] = molecular target: T1, chimeric transactivator λR-GyrB-NFκB (UniProt P03034+P0AES6); test: Coumermycin-induced reporter (Luc/GFP) expression, transient transfection of 293A cells with wild type transactivator; type: cell-based, Human; conditions: 5 nM, 40 hr
T1 construct: the GyrB domain (codons 2-220 of bacterial DNA gyrase); expressed in transfected cells; host or cells: human embryonic kidney 293A cells, transient transfection with pGyrB plus reporter plasmid, or with pCUR
Method: FIG. 2A. Either two plasmids pGFP and pGyrB (double plasmids, each 0.5 μg), or one plasmid pCUR (1.0 μg) containing the GFP gene (single plasmid), were transiently transfected into 293A cells.
FIG. 2B. Either two plasmids pLuc and pGyrB (DP, each 0.2 μg), or one plasmid pCUR (0.4 μg) containing the Luc gene (SP), were transiently transfected into 293A cells, respectively. […] The results shown are the means for triplicate determinations and representative of 3 experiments. The transfection efficiencies were normalized by co-transfection of pRL-TK vector constitutively producing Renilla luciferase.
Exponentially growing 293A cells were seeded at 8×10^5 in 60 mm dishes the day prior to transfection and co-transfected with 5 μg of XmnI linearized pLuc and 0.2 μg of pcDNA3.1 hygromycin using the SuperFect kit (Qiagen). Alternatively, the cells were transfected with PvuI linearized pCUR. Two days following transfection, the cells were replaced into 100 mm dishes, and selected with appropriate antibiotics for 2 weeks. Single clone was selected for further assay. […] Luc activity was determined using 20 μl of total cell lysate using the Dual-Luciferase Reporter Assay System (Promega). The reporter firefly luciferase activities were measured and normalized by the transfection efficiencies estimated by the activities of Renilla luciferase constitutively expressed from cotransfected pRL-TK. […]

K562-Bax cells = test: Flow cytometric analysis of apoptosis (Annexin-V) in K562-Bax cells; type: cell-based, Human; conditions: 5 nM coumermycin, 36 hr; 6.7% without treatment
From the text: (§1) It has been reported that high-level expression of Bax (Bcl2-associated X protein) elicits apoptosis in a variety of human cancer cells (17). In malignant hematopoietic cells, including k562, Bax overexpression leads to apoptosis of the transfected cells through cytochrome C release (18). To evaluate the tightness of gene expression regulated by the chimeric transactivator, the apoptotic Bax gene was cloned into the transgene-expression cassette from the two-plasmid induction system previously described. […] Stable clones harboring the both plasmids were isolated and characterized following induction.

[4] = test system: S92G-mutated chimeric λR-GyrB transactivator; test: Coumermycin-dependent luciferase activity in stable 293A clones (pCUR, S92G transactivator); type: cell-based, Human
Method: FIG. 4B. […] Results represent two independent experiments performed in triplicate.
Alternatively, the cells were transfected with PvuI linearized pCUR. Two days following transfection, the cells were replaced into 100 mm dishes, and selected with appropriate antibiotics for 2 weeks. Single clone was selected for further assay. […] After 40 hrs induction, cells were lysed in 100 μl lysis buffer (Promega) for 20 min. Luc activity was determined using 20 μl of total cell lysate using the Dual-Luciferase Reporter Assay System (Promega). The reporter firefly luciferase activities were measured and normalized by the transfection efficiencies estimated by the activities of Renilla luciferase constitutively expressed from cotransfected pRL-TK. For inducible expression of the Bax gene, wild-type K562 cells were transfected using electroporation with 5 μg DNA of the linearized pBax and pGyrB. Cell lines were selected with hygromycin and positive clones were screened in the induced and non-induced states using anti-Bax antibody visualized by Western blot.
Cells were stably transfected with pCUR containing the Luc gene. […] Values are means of three independent luciferase determinations from three independently cell cultures.
The kinetic characteristics of this inducible system were further examined in stable cell lines.

K562-Bax 65 cells = test: Western blot of Bax expression and cytosolic cytochrome C in clone K562-Bax 65; type: cell-based, Human; conditions: 5 nM coumermycin, 36 hr
From the text: as §1

CO[C@@H]1[C@@H](OC(N)=O)[C@@H](O)[C@H](Oc2ccc3c(O)c(NC(=O)c4ccc(O)c(CC=C(C)C)c4)c(=O)oc3c2C)OC1(C)C [novobiocin]
extent of switch-off of coumermycin-induced luciferase expression ([1]; 2.5 μM novobiocin added after 11 hr induction with 5 nM coumermycin): nearly completely switched off
suppression of coumermycin-induced luciferase expression ([1]; 5 μM novobiocin with 5 nM coumermycin, 40 hr): over 98%
cellular toxicity (293A cells): do not exert any detectable cellular toxicity
in vivo half-life [2]: 6 h
serum half-life ([2]; serum, in vivo): 6 h

coumermycin
GFP expression ([3]; both plasmid systems): greatly induced
induction of luciferase activity ([3]; wild type λR, double- and single-plasmid cassettes): around 50 fold
fraction of apoptotic cells (K562-Bax cells): 45.5%
induction time at which appreciable luciferase activity was detected ([4]; 5 nM coumermycin, clone S92G-5): 5 h
induction time for maximal inducibility ([4]; 5 nM coumermycin, clone S92G-5): 24 h
higher doses causing reduced induction of gene expression ([4]; FIG. 4A): > 0.5 µM
concentration at which inducibility was decreased ([4]; clone S92G-5, 40 hr): 50 nM
concentration for maximal induction ([4]; clone S92G-5, 40 hr): 2.5 to 5 nM
lowest concentration giving apparent induction of luciferase expression ([4]; clone S92G-5, 40 hr): approximately 0.5 ng/ml
lowest concentration giving appreciable/apparent induction of gene expression ([4]; clone S92G-5, 40 hr, luciferase): 0.5 nM
Luciferase Activity With Coum ([4]; stable clone 5, coumermycin 5 nM): 47,460 ± 447 Arbitrary Light Units/μg protein
Activation factor ([4]; stable clone 5, with vs without coumermycin 5 nM): 5.1 × 10^3
Luciferase Activity With Coum ([4]; stable clone 8, coumermycin 5 nM): 52,408 ± 2,254 Arbitrary Light Units/μg protein
Activation factor ([4]; stable clone 8, with vs without coumermycin 5 nM): 1.5 × 10^3
Luciferase Activity With Coum ([4]; stable clone 10, coumermycin 5 nM): 1,591 ± 100 Arbitrary Light Units/μg protein
Activation factor ([4]; stable clone 10, with vs without coumermycin 5 nM): 3.2 × 10^3
Luciferase Activity With Coum ([4]; stable clone 18, coumermycin 5 nM): 7,446 ± 36 Arbitrary Light Units/μg protein
Activation factor ([4]; stable clone 18, with vs without coumermycin 5 nM): 5.8 × 10^3
Luciferase Activity With Coum ([4]; stable clone 23, coumermycin 5 nM): 8,237 ± 204 Arbitrary Light Units/μg protein
Activation factor ([4]; stable clone 23, with vs without coumermycin 5 nM): over 10,000
Activation factor ([4]; stable clone 23, with vs without coumermycin 5 nM, listed as Coumermycin): 1.4 × 10^4
Luciferase Activity With Coum ([4]; stable clone 28, coumermycin 5 nM): 12,292 ± 550 Arbitrary Light Units/μg protein
Activation factor ([4]; stable clone 28, with vs without coumermycin 5 nM): 5.1 × 10^3
Luciferase Activity With Coum ([4]; stable clone 34, coumermycin 5 nM): 46,980 ± 1,300 Arbitrary Light Units/μg protein
Activation factor ([4]; stable clone 34, with vs without coumermycin 5 nM): 5.8 × 10^3
Luciferase Activity With Coum ([4]; stable clone 44, coumermycin 5 nM): 30,151 ± 2020 Arbitrary Light Units/μg protein
Activation factor ([4]; stable clone 44, with vs without coumermycin 5 nM): over 10,000
Activation factor ([4]; stable clone 44, with vs without coumermycin 5 nM, listed as Coumermycin): 1.3 × 10^4
Luciferase Activity With Coum ([4]; stable clone 45, coumermycin 5 nM): 1,909 ± 24 Arbitrary Light Units/μg protein
Activation factor ([4]; stable clone 45, with vs without coumermycin 5 nM): 1.6 × 10^3
Luciferase Activity With Coum ([4]; stable clone 47, coumermycin 5 nM): 8,528 ± 43 Arbitrary Light Units/μg protein
Activation factor ([4]; stable clone 47, with vs without coumermycin 5 nM): 2.1 × 10^3
Bax expression (Western blot) (K562-Bax 65 cells): greatly induced
cytochrome c release from mitochondria (Western blot) (K562-Bax 65 cells): released in substantial amounts
